# According to patent US20220132847A1, “CINNOLINIUM COMPOUNDS FOR USE IN A METHOD OF CONTROLLING UNWANTED PLANT GROWTH” (SYNGENTA CROP PROTECTION AG, priority 2019, published 2022):
# Structures can show the parent of a compound that is named as a salt.
# System: Amaranthus palmeri (AMAPA)
# Assay: Post-emergence efficacy, glasshouse
# Assay type: in vivo
# Settings: Amaranthus palmeri, post-emergence, 312 h; Application Rate 1000 g/Ha; evaluated after 13 days; 100=total damage to plant, 0=no damage to plant; read-out: Control of weed species after post-emergence application, AMAPA
# Protocol: (§1) Seeds of a variety of test species were sown in standard soil in pots. After cultivation for 14 days (post-emergence) under controlled conditions in a glasshouse (at 24/16° C., day/night; 14 hours light; 65% humidity), the plants were sprayed with an aqueous spray solution derived from the dissolution of the technical active ingredient formula (I) in a small amount of acetone and a special solvent and emulsifier mixture referred to as IF50 (11.12% Emulsogen EL360™+44.44% N-methylpyrrolidone+44.44% Dowanol DPM glycol ether), to create a 50 g/l solution which was then diluted to required concentration using 0.25% or 1% Empicol ESC70 (Sodium lauryl ether sulphate)+1% ammonium sulphate in water as diluent.
# (§2) The test plants were then grown in a glasshouse under controlled conditions (at 24/16° C., day/night; 14 hours light; 65% humidity) and watered twice daily. After 13 days the test was evaluated (100=total damage to plant; 0=no damage to plant).
# (§3) Ipomoea hederacea (IPOHE), Euphorbia heterophylla (EPHHL), Chenopodium album (CHEAL), Amaranthus palmeri (AMAPA), Lolium perenne (LOLPE), Digitaria sanguinalis (DIGSA), Eleusine indica (ELEIN), Echinochloa crus-galli (ECHCG), Setaria faberi (SETFA)
row,SMILES,pest or weed control at 1000 g/ha [%]
1,C[n+]1cc(OCC(=O)O)c2ccccc2n1 [Compound A58],80
2,"C[n+]1cc(CP(=O)([O-])O)c2ccccc2n1 [Compound A50, (2-methylcinnolin-2-ium-4-yl)methylphosphonic acid]",60
3,COC(=O)c1c[n+](C)nc2ccccc12 [Compound A2],100
4,"C[n+]1cc(P(=O)([O-])O)c2ccccc2n1 [Compound A78, hydroxy-(2-methylcinnolin-2-ium-4-yl)phosphinate]",30
5,"O=C(O)c1c[n+](CCOS(=O)(=O)[O-])nc2ccccc12 [Compound A28, 2-(4-carboxycinnolin-2-ium-2-yl)ethyl sulfate]",90
6,"Cc1c(C(=O)[O-])c2ccccc2n[n+]1C [Compound A61, 2,3-dimethylcinnolin-2-ium-4-carboxylate]",100

# System: Chenopodium album (CHEAL)
# Assay: Post-emergence efficacy, glasshouse
# Assay type: in vivo
# Settings: Chenopodium album, post-emergence, 312 h; Application Rate 1000 g/Ha; evaluated after 13 days; 100=total damage to plant, 0=no damage to plant; read-out: Control of weed species after post-emergence application, CHEAL
# Protocol: as §1, §2, §3
row,SMILES,pest or weed control at 1000 g/ha [%]
1,C[n+]1cc(P(C)(=O)O)c2ccccc2n1 [Compound A7],100
2,C[n+]1cc(OCC(=O)O)c2ccccc2n1 [Compound A58],70
3,"C[n+]1cc(CP(=O)([O-])O)c2ccccc2n1 [Compound A50, (2-methylcinnolin-2-ium-4-yl)methylphosphonic acid]",30
4,COC(=O)c1c[n+](C)nc2ccccc12 [Compound A2],70
5,"C[n+]1cc(P(=O)([O-])O)c2ccccc2n1 [Compound A78, hydroxy-(2-methylcinnolin-2-ium-4-yl)phosphinate]",10
6,"O=C(O)c1c[n+](CCOS(=O)(=O)[O-])nc2ccccc12 [Compound A28, 2-(4-carboxycinnolin-2-ium-2-yl)ethyl sulfate]",70
7,"Cc1c(C(=O)[O-])c2ccccc2n[n+]1C [Compound A61, 2,3-dimethylcinnolin-2-ium-4-carboxylate]",100

# System: Digitaria sanguinalis (DIGSA)
# Assay: Post-emergence efficacy, glasshouse
# Assay type: in vivo
# Settings: Digitaria sanguinalis, post-emergence, 312 h; Application Rate 1000 g/Ha; evaluated after 13 days; 100=total damage to plant, 0=no damage to plant; read-out: Control of weed species after post-emergence application, DIGSA
# Protocol: as §1, §2, §3
row,SMILES,pest or weed control at 1000 g/ha [%]
1,C[n+]1cc(OCC(=O)O)c2ccccc2n1 [Compound A58],70
2,"C[n+]1cc(CP(=O)([O-])O)c2ccccc2n1 [Compound A50, (2-methylcinnolin-2-ium-4-yl)methylphosphonic acid]",20
3,COC(=O)c1c[n+](C)nc2ccccc12 [Compound A2],60
4,"C[n+]1cc(P(=O)([O-])O)c2ccccc2n1 [Compound A78, hydroxy-(2-methylcinnolin-2-ium-4-yl)phosphinate]",50
5,"O=C(O)c1c[n+](CCOS(=O)(=O)[O-])nc2ccccc12 [Compound A28, 2-(4-carboxycinnolin-2-ium-2-yl)ethyl sulfate]",70
6,"Cc1c(C(=O)[O-])c2ccccc2n[n+]1C [Compound A61, 2,3-dimethylcinnolin-2-ium-4-carboxylate]",70

# System: Echinochloa crus-galli (ECHCG)
# Assay: Post-emergence efficacy, glasshouse
# Assay type: in vivo
# Settings: Echinochloa crus-galli, post-emergence, 312 h; Application Rate 1000 g/Ha; evaluated after 13 days; 100=total damage to plant, 0=no damage to plant; read-out: Control of weed species after post-emergence application, ECHCG
# Protocol: as §1, §2, §3
row,SMILES,pest or weed control at 1000 g/ha [%]
1,C[n+]1cc(P(C)(=O)O)c2ccccc2n1 [Compound A7],70
2,C[n+]1cc(OCC(=O)O)c2ccccc2n1 [Compound A58],10
3,"C[n+]1cc(CP(=O)([O-])O)c2ccccc2n1 [Compound A50, (2-methylcinnolin-2-ium-4-yl)methylphosphonic acid]",20
4,COC(=O)c1c[n+](C)nc2ccccc12 [Compound A2],30
5,"C[n+]1cc(P(=O)([O-])O)c2ccccc2n1 [Compound A78, hydroxy-(2-methylcinnolin-2-ium-4-yl)phosphinate]",50
6,"O=C(O)c1c[n+](CCOS(=O)(=O)[O-])nc2ccccc12 [Compound A28, 2-(4-carboxycinnolin-2-ium-2-yl)ethyl sulfate]",20
7,"Cc1c(C(=O)[O-])c2ccccc2n[n+]1C [Compound A61, 2,3-dimethylcinnolin-2-ium-4-carboxylate]",50

# System: Eleusine indica (ELEIN)
# Assay: Post-emergence efficacy, glasshouse
# Assay type: in vivo
# Settings: Eleusine indica, post-emergence, 312 h; Application Rate 1000 g/Ha; evaluated after 13 days; 100=total damage to plant, 0=no damage to plant; read-out: Control of weed species after post-emergence application, ELEIN
# Protocol: as §1, §2, §3
row,SMILES,pest or weed control at 1000 g/ha [%]
1,C[n+]1cc(P(C)(=O)O)c2ccccc2n1 [Compound A7],80
2,C[n+]1cc(OCC(=O)O)c2ccccc2n1 [Compound A58],30
3,"C[n+]1cc(CP(=O)([O-])O)c2ccccc2n1 [Compound A50, (2-methylcinnolin-2-ium-4-yl)methylphosphonic acid]",30
4,COC(=O)c1c[n+](C)nc2ccccc12 [Compound A2],70
5,"C[n+]1cc(P(=O)([O-])O)c2ccccc2n1 [Compound A78, hydroxy-(2-methylcinnolin-2-ium-4-yl)phosphinate]",40
6,"O=C(O)c1c[n+](CCOS(=O)(=O)[O-])nc2ccccc12 [Compound A28, 2-(4-carboxycinnolin-2-ium-2-yl)ethyl sulfate]",40
7,"Cc1c(C(=O)[O-])c2ccccc2n[n+]1C [Compound A61, 2,3-dimethylcinnolin-2-ium-4-carboxylate]",90

# System: Euphorbia heterophylla (EPHHL)
# Assay: Post-emergence efficacy, glasshouse
# Assay type: in vivo
# Settings: Euphorbia heterophylla, post-emergence, 312 h; Application Rate 1000 g/Ha; evaluated after 13 days; 100=total damage to plant, 0=no damage to plant; read-out: Control of weed species after post-emergence application, EPHHL
# Protocol: as §1, §2, §3
row,SMILES,pest or weed control at 1000 g/ha [%]
1,C[n+]1cc(P(C)(=O)O)c2ccccc2n1 [Compound A7],90
2,C[n+]1cc(OCC(=O)O)c2ccccc2n1 [Compound A58],20
3,"C[n+]1cc(CP(=O)([O-])O)c2ccccc2n1 [Compound A50, (2-methylcinnolin-2-ium-4-yl)methylphosphonic acid]",20
4,COC(=O)c1c[n+](C)nc2ccccc12 [Compound A2],70
5,"C[n+]1cc(P(=O)([O-])O)c2ccccc2n1 [Compound A78, hydroxy-(2-methylcinnolin-2-ium-4-yl)phosphinate]",70
6,"O=C(O)c1c[n+](CCOS(=O)(=O)[O-])nc2ccccc12 [Compound A28, 2-(4-carboxycinnolin-2-ium-2-yl)ethyl sulfate]",30
7,"Cc1c(C(=O)[O-])c2ccccc2n[n+]1C [Compound A61, 2,3-dimethylcinnolin-2-ium-4-carboxylate]",70

# System: Ipomoea hederacea (IPOHE)
# Assay: Post-emergence efficacy, glasshouse
# Assay type: in vivo
# Settings: Ipomoea hederacea, post-emergence, 312 h; Application Rate 1000 g/Ha; evaluated after 13 days; 100=total damage to plant, 0=no damage to plant; read-out: Control of weed species after post-emergence application, IPOHE
# Protocol: as §1, §2, §3
row,SMILES,pest or weed control at 1000 g/ha [%]
1,C[n+]1cc(P(C)(=O)O)c2ccccc2n1 [Compound A7],70
2,C[n+]1cc(OCC(=O)O)c2ccccc2n1 [Compound A58],20
3,"C[n+]1cc(CP(=O)([O-])O)c2ccccc2n1 [Compound A50, (2-methylcinnolin-2-ium-4-yl)methylphosphonic acid]",20
4,COC(=O)c1c[n+](C)nc2ccccc12 [Compound A2],70
5,"C[n+]1cc(P(=O)([O-])O)c2ccccc2n1 [Compound A78, hydroxy-(2-methylcinnolin-2-ium-4-yl)phosphinate]",10
6,"O=C(O)c1c[n+](CCOS(=O)(=O)[O-])nc2ccccc12 [Compound A28, 2-(4-carboxycinnolin-2-ium-2-yl)ethyl sulfate]",20
7,"Cc1c(C(=O)[O-])c2ccccc2n[n+]1C [Compound A61, 2,3-dimethylcinnolin-2-ium-4-carboxylate]",100

# System: Lolium perenne (LOLPE)
# Assay: Post-emergence efficacy, glasshouse
# Assay type: in vivo
# Settings: Lolium perenne, post-emergence, 312 h; Application Rate 1000 g/Ha; evaluated after 13 days; 100=total damage to plant, 0=no damage to plant; read-out: Control of weed species after post-emergence application, LOLPE
# Protocol: as §1, §2, §3
row,SMILES,pest or weed control at 1000 g/ha [%]
1,C[n+]1cc(P(C)(=O)O)c2ccccc2n1 [Compound A7],40
2,C[n+]1cc(OCC(=O)O)c2ccccc2n1 [Compound A58],0
3,"C[n+]1cc(CP(=O)([O-])O)c2ccccc2n1 [Compound A50, (2-methylcinnolin-2-ium-4-yl)methylphosphonic acid]",0
4,COC(=O)c1c[n+](C)nc2ccccc12 [Compound A2],30
5,"C[n+]1cc(P(=O)([O-])O)c2ccccc2n1 [Compound A78, hydroxy-(2-methylcinnolin-2-ium-4-yl)phosphinate]",10
6,"O=C(O)c1c[n+](CCOS(=O)(=O)[O-])nc2ccccc12 [Compound A28, 2-(4-carboxycinnolin-2-ium-2-yl)ethyl sulfate]",50
7,"Cc1c(C(=O)[O-])c2ccccc2n[n+]1C [Compound A61, 2,3-dimethylcinnolin-2-ium-4-carboxylate]",10

# System: Setaria faberi (SETFA)
# Assay: Post-emergence efficacy, glasshouse
# Assay type: in vivo
# Settings: Setaria faberi, post-emergence, 312 h; Application Rate 1000 g/Ha; evaluated after 13 days; 100=total damage to plant, 0=no damage to plant; read-out: Control of weed species after post-emergence application, SETFA
# Protocol: as §1, §2, §3
row,SMILES,pest or weed control at 1000 g/ha [%]
1,C[n+]1cc(P(C)(=O)O)c2ccccc2n1 [Compound A7],70
2,C[n+]1cc(OCC(=O)O)c2ccccc2n1 [Compound A58],60
3,"C[n+]1cc(CP(=O)([O-])O)c2ccccc2n1 [Compound A50, (2-methylcinnolin-2-ium-4-yl)methylphosphonic acid]",10
4,COC(=O)c1c[n+](C)nc2ccccc12 [Compound A2],60
5,"C[n+]1cc(P(=O)([O-])O)c2ccccc2n1 [Compound A78, hydroxy-(2-methylcinnolin-2-ium-4-yl)phosphinate]",40
6,"O=C(O)c1c[n+](CCOS(=O)(=O)[O-])nc2ccccc12 [Compound A28, 2-(4-carboxycinnolin-2-ium-2-yl)ethyl sulfate]",40
7,"Cc1c(C(=O)[O-])c2ccccc2n[n+]1C [Compound A61, 2,3-dimethylcinnolin-2-ium-4-carboxylate]",40
